# Measured values reported in BindingDB's records for doi:10.1016/j.bmcl.2009.10.040 (Methylgene, 2009).
# How the values were obtained:
# [1] = Inhibition of c-Met in human A549 cells by wound healing assay
# [2] = Inhibition of c-Met in human DU145 cells assessed as cell scattering
compound,measurement,setting,value
COc1cc2nccc(Oc3ccc(NC(=O)N4CCN(c5ccccc5)C4=O)cc3F)c2cc1OC,IC50,[1],80 nM
same,IC50,[2],80 nM
